Data taken from US10730889B2, “Amido spirocyclic amide and sulfonamide derivatives” (Forma TM, LLC, priority 2012, dated 2020).

System: A2780 cells
Assay: In-vitro cell proliferation assay (SRB, 72 hours)
Assay type: cell-based
Conditions: Homo sapiens, A2780, 72 h, A2780 cells, 72 hours, SRB; read-out: Cell Proliferation (IC50)

IC50 | SMILES
2 µM | N#Cc1ccc(NC(=O)N2CCC3(CC2)CC3CNC(=O)c2cc3ccncc3o2)cc1 (stereo not shown) [Example 157, N-[[6-[(4-cyanophenyl)carbamoyl]-6-azaspiro[2.5]octan-2-yl)methyl]furo[2,3-c]pyridine-2-carboxamide]
2 µM | Cc1cccc(CNC(=O)N2CCC3(CC2)CC3CNC(=O)c2cc3ccncc3o2)c1 (stereo not shown) [Example 158, N-[[6-(m-tolylmethylcarbamoyl)-6-azaspiro[2.5]octan-2-yl]methyl]furo[2,3-c]pyridine-2-carboxamide]
0.274 µM | Cc1ccc(NC(=O)N2CCC3(CC2)CC3CNC(=O)c2cc3ccncc3o2)cc1 (stereo not shown) [Example 159, N-[[6-(p-tolylcarbamoyl)-6-azaspiro[2.5]octan-2-yl]methyl]furo[2,3-c]pyridine-2-carboxamide]
2 µM | O=C(NCC1CC12CCN(C(=O)NCc1ccccc1)CC2)c1cc2ccncc2o1 (stereo not shown) [Example 160]
2 µM | O=C(NCC1CC12CCN(C(=O)NCc1ccccc1F)CC2)c1cc2ccncc2o1 (stereo not shown) [Example 161, N-[[6-[(2-fluorophenyl)methylcarbamoyl]-6-azaspiro[2.5]octan-2-yl]methyl]furo[2,3-c]pyridine-2-carboxamide]
2 µM | Cc1ccc(CNC(=O)N2CCC3(CC2)CC3CNC(=O)c2cc3ccncc3o2)cc1 (stereo not shown) [Example 162, N-[[6-(p-tolylmethylcarbamoyl)-6-azaspiro[2.5]octan-2-yl]methyl]furo[2,3-c]pyridine-2-carboxamide]
2 µM | O=C(NCC1CC12CCN(C(=O)NCc1ccc(F)cc1)CC2)c1cc2ccncc2o1 (stereo not shown) [Example 163, N-[[6-[(4-fluorophenyl)methylcarbamoyl]-6-azaspiro[2.5]octan-2-yl]methyl]furo[2,3-c]pyridine-2-carboxamide]
1.54 µM | COc1ccccc1CNC(=O)N1CCC2(CC1)CC2CNC(=O)c1cc2ccncc2o1 (stereo not shown) [Example 164, N-[[6-((2-methoxyphenyl)methylcarbamoyl]-6-azaspiro[2.5]octan-2-yl]methyl]furo[2,3-c]pyridine-2-carboxamide]
2 µM | COc1cccc(CNC(=O)N2CCC3(CC2)CC3CNC(=O)c2cc3ccncc3o2)c1 (stereo not shown) [Example 165, N-[[6-[(3-methoxyphenyl)methylcarbamoyl]-6-azaspiro[2.5]octan-2-yl]methyl]furo[2,3-c]pyridine-2-carboxamide]
2 µM | O=C(NCC1CC12CCN(C(=O)NCc1cccc(F)c1)CC2)c1cc2ccncc2o1 (stereo not shown) [Example 166, N-[[6-[(3-fluorophenyl)methylcarbamoyl]-6-azaspiro[2.5]octan-2-yl]methyl]furo[2,3-c]pyridine-2-carboxamide]
2 µM | COc1ccc(CNC(=O)N2CCC3(CC2)CC3CNC(=O)c2cc3ccncc3o2)cc1 (stereo not shown) [Example 167, N-[[6-[(4-methoxyphenyl)methylcarbamoyl]-6-azaspiro[2.5]octan-2-yl]methyl]furo[2,3-c]pyridine-2-carboxamide]
2 µM | O=C(NCC1CC12CCN(C(=O)NCc1ccc(Cl)c(Cl)c1)CC2)c1cc2ccncc2o1 (stereo not shown) [Example 168, N-[[6-[(3,4-dichlorophenyl)methylcarbamoyl]-6-azaspiro[2.5]octan-2-yl]methyl]furo[2,3-c]pyridine-2-carboxamide]
0.0278 µM | O=C(NCC1CC12CCN(C(=O)NC13CC4CC(CC(C4)C1)C3)CC2)c1cc2ccncc2o1 (stereo not shown) [Example 169, N-[[6-(1-adamantylcarbamoyl)-6-azaspiro[2.5]octan-2-yl]methyl]furo[2,3-c]pyridine-2-carboxamide]
2 µM | O=C(NCC1CC12CCN(C(=O)NCc1ccc(Cl)cc1)CC2)c1cc2ccncc2o1 (stereo not shown) [Example 170, N-[[6-[(4-chlorophenyl)methylcarbamoyl]-6-azaspiro[2.5]octan-2-yl]methyl]furo[2,3-c]pyridine-2-carboxamide]
2 µM | O=C(NCC1CC12CCN(C(=O)NCc1ccccc1Cl)CC2)c1cc2ccncc2o1 (stereo not shown) [Example 171, N-[[6-[(2-chlorophenyl)methylcarbamoyl]-6-azaspiro[2.5]octan-2-yl]methyl]furo[2,3-c]pyridine-2-carboxamide]
2 µM | CCNC(=O)N1CCC2(CC1)CC2CNC(=O)c1cc2ccncc2o1 (stereo not shown) [Example 172, N-[[6-(ethylcarbamoyl)-6-azaspiro[2.5]octan-2-yl)methyl]furo[2,3-c]pyridine-2-carboxamide]
2 µM | O=C(NCC1CC12CCN(C(=O)NCc1ccc(Cl)cc1Cl)CC2)c1cc2ccncc2o1 (stereo not shown) [Example 173, N-[(6-[(2,4-dichlorophenyl)methylcarbamoyl]-6-azaspiro[2.5]octan-2-yl]methyl]furo[2,3-c]pyridine-2-carboxamide]
0.197 µM | CC1(O)CC(CC(=O)N2CCC3(CC2)CC3CNC(=O)c2cc3ccncc3o2)C1 (stereo not shown) [Example 174, N-([6-[2-(3-hydroxy-3methylcyclobutyl)acetyl]-6-azaspiro[2.5]octan-1-yl]methyl)furo[2,3-c]pyridine-2-carboxamide]
0.0341 µM | O=C(Cc1ccccn1)N1CCC2(CC1)CC2CNC(=O)N1Cc2ccncc2C1 (stereo not shown) [Example 176, N-[[6-[2-(2-pyridyl)acetyl]-6-azaspiro[2.5]octan-2-yl]methyl] 1,3-dihydropyrrolo[3,4-c]pyridine-2-carboxamide]

IC50 | SMILES
0.0344 µM | O=C(Cc1cccnc1)N1CCC2(CC1)CC2CNC(=O)N1Cc2ccncc2C1 (stereo not shown) [Example 177]
0.0323 µM | N#Cc1cccc(CC(=O)N2CCC3(CC2)CC3CNC(=O)N2Cc3ccncc3C2)c1 (stereo not shown) [Example 178, N-[[6-(2-(3-cyanophenyl)acetyl]-6-azaspiro[2.5]octan-2-yl]methyl]-1,3-dihydropyrrolo(3,4-c]pyridine-2-carboxamide]
0.0254 µM | O=C(NCC1CC12CCN(C(=O)c1ccc(-n3cncn3)cc1)CC2)c1cc2ccncc2o1 (stereo not shown) [Example 179, N-[[6-[4-(1,2,4-triazol-1-yl)benzoyl]-6-azaspiro[2.5]octan-2-yl]methyl]furo[2,3-c]pyridine-2-carboxamide]
2.46 µM | Cc1nccn1CC(=O)N1CCC2(CC1)CC2CNC(=O)c1cc2ccncc2o1 (stereo not shown) [Example 180, N-[[6-[2-(2-methylimidazol-1-yl)acetyl]-6-azaspiro[2.5]octan-2-yl]methyl]furo[2,3-c]pyridine-2-carboxamide]
0.00331 µM | Cc1nn(C)c(C)c1C(=O)N1CCC2(CC1)CC2CNC(=O)c1cc2ccncc2o1 (stereo not shown) [Example 181, N-[[6-(1,3,5-trimethylpyrazole-4-carbonyl)-6-azaspiro[2.5]octan-2-yl]methyl]furo[2,3-c]pyridine-2-carboxamide]
2 µM | CC(C)(C)NC(=O)N1CCC2(CC1)CC2CNC(=O)c1cc2ccncc2o1 (stereo not shown) [Example 182, N-[[6-(tert-butylcarbamoyl)-6-azaspiro[2.5]octan-2-yl]methyl]furo[2,3-c]pyndine-2-carboxamide]
2 µM | CC(C)NC(=O)N1CCC2(CC1)CC2CNC(=O)c1cc2ccncc2o1 (stereo not shown) [Example 183, N-[[6-(isopropylcarbamoyl)-6-azaspiro[2.5]octan-2-yl]methyl]furo[2,3-c]pyridine-2-carboxamide]
2 µM | O=C(NCC1CC12CCN(C(=O)NCC1CCCCC1)CC2)c1cc2ccncc2o1 (stereo not shown) [Example 184, N-[[6-(cyclohexylmethylcarbamoyl)-6-azaspiro[2.5]octan-2-yl]methyl]furo[2,3-c]pyridine-2-carboxamide]
2 µM | CCCNC(=O)N1CCC2(CC1)CC2CNC(=O)c1cc2ccncc2o1 (stereo not shown) [Example 185, N-[[6-(propylcarbamoyl)-6-azaspiro[2.5]octan-2-yl]methyl]furo[2,3-c]pyridine-2-carboxamide]
0.732 µM | O=C(NCC1CC12CCN(C(=O)NC1CCCCC1)CC2)c1cc2ccncc2o1 (stereo not shown) [Example 186, N-[[6-(cyclohexylcarbamoyl)-6-azaspiro[2.5]octan-2-yl)methyl]furo[2,3-c]pyridine-2-carboxamide]
2.46 µM | O=C(NCC1CC12CCN(C(=O)Nc1ccccc1)CC2)c1cc2ccncc2o1 (stereo not shown) [Example 187, N-[[6-(phenylcarbamoyl)-6-azaspiro[2.5]octan-2-yl]methyl]furo[2,3-c]pyridine-2-carboxamide]
0.0453 µM | CC(C)N1CCC(CC(=O)N2CCC3(CC2)CC3CNC(=O)N2Cc3ccncc3C2)CC1 (stereo not shown) [Example 188, N-[[6-[2-(1-isopropyl-4-piperidyl)acetyl]-6-azaspiro[2.5]octan-2-yl]methyl]-1,3-dihydropyrrolo[3,4-c]pyridine-2-carboxamide]
0.0507 µM | O=C(Cc1ccncc1)N1CCC2(CC1)CC2CNC(=O)N1Cc2ccncc2C1 (stereo not shown) [Example 190, N-[[6-[2-(4-pyridyl)acetyl]-6-azaspiro[2.5]octan-2-yl]methyl]-1,3-dihydropyrrolo[3,4-c]pyridine-2-carboxamide]
1.04 µM | N#CCC(=O)N1CCC2(CC1)CC2CNC(=O)N1Cc2ccncc2C1 (stereo not shown) [Example 191, N-[[6-(2-cyanoacetyl)-6-azaspiro[2.5]octan-2-yl]methyl]-1,3-dihydropyrrolo[3,4-c]pyridine-2-carboxamide]
2 µM | CC(C)(C)OC(=O)N1CCC2(CC1)CC(CNC(=O)c1cc3cnccc3[nH]1)C2 [Example 193, tert-butyl 2-[(1H-pyrrolo[3,2-c]pyridine-2-carbonylamino)methyl]-7-azaspiro[3.5]nonane-7-carboxylate]
2 µM | CC(C)(C)OC(=O)N1CCC2(CC1)CC(CNC(=O)c1cc3ccncc3o1)C2 [Example 194, tert-butyl 2-[(furo[2,3-c]pyridine-2-carbonylamino)methyl]-7-azaspiro[3.5]nonane-7-carboxylate]
0.218 µM | CC1(CC(=O)N2CCC3(CC2)CC3CNC(=O)c2cc3ccncc3o2)COC1 (stereo not shown) [Example 195, N-[[6-[2-(3-methyloxetan-3-yl)acetyl]-6-azaspiro[2.5]octan-2-yl]methyl]furo[2,3-c]pyridine-2-carboxamide]
0.00367 µM | O=C(CC1CCCCC1)N1CCC2(CC1)CC2CNC(=O)N1Cc2ccncc2C1 (stereo not shown) [Example 196, N-[[6-(2-cyclohexylacetyl)-6-azaspiro[2.5]octan-2-yl]methyl]-1,3-dihydropyrrolo[3,4-c]pyridine-2-carboxamide]
